Series [1] has as its system H1048, CM, MIA PaCa-2, PANC-1 and Luc-PANC-1 cancer cell lines. The experiment in a line: Viability assay screen in a panel of cancer cell lines. It counts as cell-based. The following applies: 10 uM, 72 hours (FIG. 8). The procedure:
Viability assay performed in a panel of cancer cell lines including H1048 (small cell lung cancer), CM (pancreatic neuroendocrine tumor), MIA PaCa-2 and PANC-1 (pancreatic ductal adenocarcinoma), Luc-PANC-1 (pancreatic ductal adenocarcinoma cells expressing firefly luciferase). Initial viability assay screens were performed with single drug concentration (10 μM) or DMSO control (0.25%). […] The threshold of 10 μM was selected since compounds showing under 50% viability at 10 μM would indicate greater cytotoxicity than disclosed TS inhibitor 5-FU and present a promising lead candidate for further study.
To identify potential TS small molecule inhibitors, molecular docking was used to computationally screen compounds with the ability to bind TS. The details of the procedure are presented in the Methods section. The top ranked 26 compounds were acquired and designated 1-A through 26-Z, then used to determine the cytotoxicity at a 10 uM concentration in several cancer cell lines. […] This initial computational screen provided a predictive model that allowed a preliminary assessment for possible drug candidates. Subsequent experiments were pursued to validate biological activity and to define mechanisms for TS inhibition.

The subject of a further series is CM cells. Nature of the series: Cell viability (MTS) assay, CM. The series is classed as cell-based. The note with it: 72 hour drug incubation (FIG. 1C).
Series [2] relates to TS protein expression in PANC-1 cells. Nature of the series: Immunoblot analysis of TS expression in PANC-1 cells. It counts as cell-based. The following applies: PANC-1 cells treated 72 hours (FIG. 1D). The procedure:
To prepare lysates, 0.5×10^6 PA NC-1 cells were seeded in 100 mm dishes in 10 ml DMEM High glucose and 24 hours later, 5-FU (Sigma) or 19-S were added at the specified concentrations. Cells were harvested after 72 hours and cell pellets were stored at −80° C. For GI50 determination, 3000 MIA PaCa-2 cells. […] After 72 hours, cell viability was assessed by reduction of MTS ((3-4,5-dimethylthiazol-2-yl)-5-(3-carboxymethoxyphenol)-2-(4-sulfophenyl)-2H-tetrazolium) using Cell Titer 96 R Aqueous One Solution Cell Proliferation Assay Kit (Promega), following manufacturer's recommendations. Chemiluminescent output (integration time 1000 ms) was measured on a SpectraMax M3® (Molecular devices). […]
Protein lysates were generated using RIPA buffer (Santa Cruz) for 20 minutes on ice, followed by 15 minutes centrifugation at 13,000 rpm, at 4° C. […] Protein was quantified using Bradford Assay (BioRad) following manufacturer's recommendations, standard curves were generated with bovine serum albumin (Fisher).
20 μg of total protein lysate was loaded per lane of 10% Tris Glycine Gel (Invitrogen). […] Signal was detected using West Pico Plus chemiluminescent substrate (Thermo Scientific) following manufacturer's recommendations. […] For protein level quantification relative to loading control, densitometric analysis was performed by ImageJ software.
(In general: Immunoblotting shows a protein as a band on a membrane.)

Series [3] concerns Luc-CM disseminated tumors. The experiment in a line: Luc-CM disseminated xenograft tumor model. The series is classed as in vivo, NSG mice. Here is the method: Luc-PANC-1 (5×106) and Luc-CM (0.5×106) cells were resuspended in 200 ul of PBS and injected subcutaneously (SQ) or intraperitonially (IP) to 6-8-week-old NSG mice respectively. Tumor bearing mice were imaged using Xenogen IVIS® Lumina Bioluminescence Imaging System (Perkin Elmer) every week after cell injection. At 4 weeks, animals were randomized based on slope of luciferase signal and treatment was initiated. […] For all animals body weight was recorded weekly and Luc-PANC-1 tumor volume was measured weekly with a caliper. For scheduled sacrifice experiments, animals were euthanized after 4 weeks of treatment. […] Harvested tumors were excised and weighted, and fixed in alcoholic formalin (67.5% Ethanol, 10% Formaldehyde 37%, 22.5% water) for pathology analysis. Tumor volume was calculated as [volume=0.52 (length×width2)].
From this stock, the exact volume needed for daily in vivo delivery was then formulated into 95% corn oil (Mazola) at 2 different concentrations: 1.25 mg/mi (formulation 1) and 3.125 mg/ml (formulation 2). To determine the volume of solution administered to the mice, 200 μl (maximum volume to be delivered in mice via IP or oral gavage) was divided by 25 g of mouse body weight. Therefore, 8 μl of formulation 1 or 2 multiplied by the weight of the mice were used to reach a dose of 10 or 25 mg/kg of body weight, respectively.
Prior to bioluminescence imaging the region where tumors were located was shaved. Mice were then anesthetized with 2.5% isoflurane in 02 then administered the D-luciferin substrate (150 mg/kg in PBS) by IP injection. Following the injection of the D-luciferin substrate mice were imaged using the Xenogen IVIS® Lumina Bioluminescence Imaging System (Perkin Elmer). The peak of luciferase photon flux was recorded 6 minutes after injection of the D-luciferin substrate. The total photon flux was analyzed and restricted to tumor ROI (region of interest) using Living Image v2.60.1 software (Imaging Systems).

Series [4] is described as follows: Maximum tolerated dose (MTD) study. It counts as in vivo. From the text:
After 3 treatment cycles, animals rested (no treatment) for one more week before euthanasia. Body weight and physical status of all mice were closely monitored. Tissues were collected and fixed in alcoholic formalin to test for toxicity.

Turning to `CCc1nc(N)nc(N)c1-c1ccc(N(C)Cc2ccccc2)c([N+](=O)[O-])c1` [Compound 19-S], the “cytotoxicity (viability)” value in series [1] was “exhibited cytotoxicity in the 5 cell lines examined”. Further, halving of growth with CM cells (GI50) required 95 nM. In series [2], the “TS protein expression (steady-state TS levels)” value was “no increase in steady-state TS levels”. Moreover, in series [3] (25 mg/kg IP, 3 cycles), the “body weight and behavior” value is on record as “did not show significant deviations in body weight or display adverse behavior”. In addition, the “tumor progression (abdominal bioluminescence photon flux)” value in series [3] (25 mg/kg IP, 3 cycles, p=0.0032 vs vehicle) was “efficiently inhibited tumor progression”. In addition, the body weight result in series [3] (25 mg/kg oral gavage) is given as “no significant deviations in body weight”. For the same molecule, the mortality result in series [4] (50 mg/kg IP, n=3 (FIG. 10B)) was “found dead after 12th, 13th and 14th dose”; in series [4] (50 mg/kg IP, n=3 (FIG. 10C)) it was 2 were found dead after 1st dose and one animal reached endpoint; in series [4] (100 mg/kg IP, n=2 (FIG. 10B)), “found dead after 1st and 3rd dose”; in series [4] (100 mg/kg IP, n=3 (FIG. 10C)) it was “found dead after 1st dose”. The MTD at 3 treatment cycles of 5 consecutive daily doses in series [4] (mouse, in vivo, IP, NSG mice, read-out: maximum tolerated dosage (MTD)) is 25 mg/kg.

In general, GI50 refers to the concentration at which growth is held to half of that of the control. Read a low GI50 as more potent growth inhibition. As usually defined, the MTD is the highest dose tested that stayed within the study's limit of toxicity.

Values taken from patent publication US20260258000A1, “THYMIDYLATE SYNTHASE INHIBITORS AND USES THEREOF” (University of Florida Research Foundation, Incorporated, priority 2021, published 2026).
